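Step 1: Grow cells in 96-well plates. Step 2: Expose to compound for 48 hours at 5 concentrations. Step 3: Interpolate endpoints linearly; if unreached, use highest concentration. GI50 marks 50% less growth. Definition used: TGI = concentration required for complete inhibition of growth.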
Key:
Assay in all cases: inhibition of tumour cell growth, NCI panel, 48 h
[1] = tested on: OVCAR-8 ovarian
[2] = tested on: T-47D breast
[3] = tested on: OVCAR-3 ovarian
[4] = tested on: MDA-MB-435
[5] = tested on: SK-OV-3 ovarian
[6] = tested on: MOLT-4 leukemia
[7] = tested on: CCRF-CEM leukemia
[8] = tested on: PC-3 prostate
[9] = tested on: RXF 393 renal
[10] = tested on: BT-549 breast

SMILES	GI50 [1]	TGI [1]	GI50 [2]	TGI [2]	GI50 [3]	TGI [3]	GI50 [4]	TGI [4]	GI50 [5]	TGI [5]	GI50 [6]	TGI [6]	GI50 [7]	TGI [7]	GI50 [8]	TGI [8]	GI50 [9]	TGI [9]	GI50 [10]	TGI [10]
NC(=NCCO)c1ccc(N2CCCN(c3ccc(C(N)=NCCO)cc3)CC2)cc1	> 100 µM	> 100 µM	> 100 µM	> 100 µM	> 100 µM	> 100 µM	> 100 µM	> 100 µM												
O=C(Nc1cc(C(F)(F)F)cc(C(F)(F)F)c1)Nc1ccc(OCc2nnc(-c3ccc(Cl)cc3)o2)c(F)c1	1.6 µM	5.73 µM	1.85 µM	8.04 µM	1.08 µM	3.92 µM	2.6 µM	9.78 µM	2.69 µM	9.51 µM	2.72 µM	12 µM	1.88 µM	11.3 µM	0.668 µM	11.2 µM				
CNC1=CC(=O)C2=C(C1=O)C1C3=C(C(=O)C(Br)=C(OC)C3=O)C2c2ccccc21 (stereo not given)	3.87 µM	> 50 µM	1.44 µM	15.7 µM	1.5 µM	3.1 µM	6.92 µM	17.1 µM	2.15 µM	> 50 µM	1.12 µM	> 50 µM			1.08 µM	2.75 µM	1.49 µM	2.99 µM	1.6 µM	5.3 µM
CC(=O)Oc1ccccc1C(=O)NCCC[Se]C#N	1.95 µM	4.1 µM	3.19 µM	17.8 µM			2.19 µM	5.16 µM	3.33 µM	6.16 µM	2.46 µM	8.53 µM	2.89 µM	21.1 µM	1.93 µM	5.47 µM	2.67 µM	6.7 µM		
OCC#CCCCCOCC#Cc1ccccc1C#CCOCCCCC#CCO	52.3 µM	> 100 µM			18.7 µM	45.7 µM	20 µM	45.9 µM			14.8 µM	> 100 µM			40.6 µM	98.4 µM	31.8 µM	96.9 µM	16.8 µM	41.2 µM
COC(=O)c1ccc(NC(N)=NCC(C)(C)COc2ccc(C(F)(F)F)cc2)nc1			1.37 µM	3.21 µM	1.64 µM	3.17 µM			1.8 µM	3.45 µM					1.38 µM	2.75 µM	1.49 µM	2.96 µM		
Oc1cc2c(cc1C(c1ccc3c(c1)OCO3)N1CCN(C(c3ccc4c(c3)OCO4)c3cc4c(cc3O)OCO4)CC1)OCO2 (stereo not given)		29.9 µM		34.6 µM		30.8 µM		35 µM		94.8 µM		28.4 µM				> 100 µM		> 100 µM		45.1 µM
Cc1cc(S(=O)(=O)Nc2nc3ccccc3[nH]2)c(SCc2ccccc2)cc1Cl	37.5 µM	> 100 µM			14.2 µM	58.4 µM	> 100 µM	> 100 µM	70.3 µM	> 100 µM	36.4 µM	85.6 µM	12.3 µM	24.8 µM	> 100 µM	> 100 µM	> 100 µM	> 100 µM	> 100 µM	> 100 µM
C=C(CN(C)Cc1ccccc1)c1ccc(C(=O)Nc2ccccc2N)cc1	1.56 µM	14.4 µM	0.611 µM	4.75 µM	3.56 µM	16 µM	1.42 µM	5.7 µM	5.28 µM	14.4 µM					4.95 µM	> 50 µM			1.48 µM	10.1 µM
O=C1C(CO)=C[C@@H](O)[C@H]2O[C@@H]12		> 100 µM		> 100 µM		> 100 µM		78.6 µM		> 100 µM		> 100 µM		> 100 µM						> 100 µM
COc1ccc(C2CC(c3cccc(OC)c3)=NN2C(=O)c2cc(OC)c(OC)c(OC)c2)cc1 (stereo not given)	5.83 µM	> 100 µM	3.02 µM	> 100 µM			0.307 µM	1.71 µM	3.66 µM	> 100 µM	2.14 µM	> 100 µM	1.84 µM	> 29.6 µM	0.882 µM	> 100 µM			2.05 µM	> 100 µM
O=C(Nc1nc(-c2ccccc2)cs1)c1cc(O)c(O)c(O)c1	3.38 µM	> 100 µM	2.34 µM	22.8 µM	3.39 µM	13.6 µM	5.59 µM	56.2 µM	12 µM	41.9 µM	1.57 µM	19.4 µM	0.687 µM	10.5 µM			3.55 µM	19.7 µM	3.46 µM	31.4 µM

Source: PubChem BioAssay (NCI)
